Structures are written as SMILES.

This data set in a line: Thermo Scientific Acclaim RSLC 120 C18, 100 × 2.1 mm, 2.2 µm, 30 °C; A: 90% water + 10% methanol + 0.01% formic acid + 5 mM ammonium formate; B: methanol + 0.01% formic acid + 5 mM ammonium formate; gradient (min/%B) 0.1/1 3/39 14/99.9 16/99.9. The conditions noted are these: stereoisomer not certain.
`CCS(=O)(=O)Cc1ccccc1OC(=O)NC`: the LC retention time turned out to be 4.63 min.
The value for `CC(C)C1(C)N=C(c2nc3ccccc3cc2C(=O)O)NC1=O` (configuration not stated) was 6.1 min.
Then `COc1cccc2c(C(=O)NC3C4(C)CCC(C4)C3(C)C)cn(CCN3CCOCC3)c12` (configuration not stated), with 11.7 min; and `Cc1ccsc1C(=CCCN1CCCC(C(=O)O)C1)c1sccc1C` (configuration not stated), with 8.43 min; and `CNC(=N[N+](=O)[O-])NCC1CCOC1` (configuration not stated), with 3.59 min.
The value for `CCN(CC)CCOC(=O)C1(C2CCCCC2)CCCCC1` was 9.99 min; that for `CC1=C(C(=O)Nc2ccccc2)S(=O)(=O)CCO1` was 5.59 min.
Take `CCC(=O)C1(c2cccc(O)c2)CCN(C)CC1`: the LC retention time was determined as 4.26 min.
The value for `CCCN(CCC)C(=O)SCC` was 10.7 min; that for `COc1ccc(CN(CCN(C)C)c2ccccn2)cc1` was 5.89 min.
The value for `COC(=O)NC(C(=O)NC(Cc1ccccc1)C(O)CN(Cc1ccc(-c2ccccn2)cc1)NC(=O)C(NC(=O)OC)C(C)(C)C)C(C)(C)C` (configuration not stated) was 10.9 min; that for `CCCc1nn(C)c2c(=O)[nH]c(-c3cc(C(=O)CN4CCN(CC)C(=O)C4)ccc3OCC)nc12` was 9.09 min.
Then `OCCN(CCO)c1nc(N2CCCCC2)c2nc(N(CCO)CCO)nc(N3CCCCC3)c2n1`, with 9.36 min; and `CSc1ccc(CC(C)N)cc1` (configuration not stated), with 5.24 min; and `C#CCNC(C)Cc1ccccc1` (configuration not stated), with 4.66 min.
As to `CN(C)CCc1c[nH]c2cccc(O)c12`, the LC retention time came out at 3.29 min.
Then `CNC(=O)ON=C(C)C(C)SC` (configuration not stated), with 6.07 min; and `CCN(CC)C(=O)C1(c2ccccc2)CC1CN` (configuration not stated), with 5.73 min; and `OC(CCN1CCCCC1)(c1ccccc1)C1CCCCC1` (configuration not stated), with 7.86 min.
Then `COCCN(C(=O)CS(=O)(=O)O)c1c(C)cccc1C`, with 5.54 min; and `COc1cccc(C(=O)CCNC(C)C(O)c2ccccc2)c1` (configuration not stated), with 6.14 min.
Then `Cc1nn(C)c(Oc2ccccc2)c1C=NOCc1ccc(C(=O)OC(C)(C)C)cc1`, with 13.2 min.
In the case of `COc1ccc(OC)c(CC(C)N)c1` (configuration not stated), the LC retention time worked out at 4.78 min.
The value for `CCOP(=O)(OCC)Oc1ccc([N+](=O)[O-])cc1` was 8.01 min; that for `CN(C)P(=O)(OP(=O)(N(C)C)N(C)C)N(C)C` was 5.36 min; that for `CC(C)NCC(O)COc1cccc2ccccc12` (configuration not stated) was 6.59 min.
The value for `OCc1cc(C(O)CNCCCCCCOCCCCc2ccccc2)ccc1O` (configuration not stated) was 8.83 min.
Then `CCC(=O)OC(Cc1ccccc1)(c1ccccc1)C(C)CNC` (configuration not stated), with 7.84 min.
For `O=C(O)c1ccccc1C(=O)Nc1cccc2ccccc12`, the LC retention time was determined as 6.75 min.
Then `CC(N)Cc1ccc2[nH]ccc2c1` (configuration not stated), with 4.07 min; and `CN1C2CCC1CC(OC(=O)C(CO)c1ccccc1)C2` (configuration not stated), with 4.36 min; and `CN(C)NC(=O)CCC(=O)O`, with 6.28 min.
Then `CC(CN1c2ccccc2Sc2ccc(S(=O)(=O)N(C)C)cc21)N(C)C` (configuration not stated), with 7.01 min; and `NC1Cc2cc3c(cc2C1)OCO3`, with 3.81 min; and `CN(CC=CC#CC(C)(C)C)Cc1cccc2ccccc12`, with 11 min.
The value for `CNC(=O)Oc1ccc(N(C)C)c(C)c1` was 5.15 min; that for `COc1ccc(-c2oc3c(CC=C(C)C)c(OC4OC(CO)C(O)C(O)C4O)cc(O)c3c(=O)c2OC2OC(C)C(O)C(O)C2O)cc1` (configuration not stated) was 8.24 min; that for `CC(C)(ON=C(C(=O)NC1C(=O)N2C(C(=O)[O-])=C(C[n+]3ccccc3)CSC12)c1csc(N)n1)C(=O)O` (configuration not stated) was 3.38 min.
As for `Nc1ncnc2c1ncn2C1OC(CO)C(O)C1O` (configuration not stated), the LC retention time was determined as 3.14 min.
For `CCCc1nn(C)c2c(=O)[nH]c(-c3cc(C(=O)CN4CCN(CC)C(=O)C4=O)ccc3OCC)nc12`, the LC retention time is 8.18 min.
With `COC(=O)C1=C(C)NC(C)=C(C(=O)OC(C)C)C1c1cccc2nonc12` (configuration not stated), the LC retention time came out at 9.61 min.
Then `COc1nn(CSP(=S)(OC)OC)c(=O)s1`, with 8.7 min.
For `CNC(C)C1CCC(N)C(OC2C(N)CC(N)C(OC3OCC(C)(O)C(NC)C3O)C2O)O1` (configuration not stated), the LC retention time was determined as 11.6 min.
The value for `CCCCCn1nc(C(=O)Oc2cccc3cccnc23)c2ccccc21` was 11.4 min; that for `Cc1cccc(C)c1OCC(C)N` (configuration not stated) was 5.59 min.
The value for `CCOP(=S)(OCC)SCSP(=S)(OCC)OCC` was 12.4 min; that for `Nc1ncn[nH]1` was 1.44 min.
Then `CC(=O)OC1CCC2C3CCC4CC(=O)C=C(C)C4(C)C3CCC12C` (configuration not stated), with 12.5 min.
As for `COc1ccc(NS(=O)(=O)c2ccc(N)cc2)nn1`, the LC retention time amounted to 4.38 min.
In the case of `CCC(C)(C)C(=O)OC1CC(C)C=C2C=CC(C)C(CCC3CC(O)CC(=O)O3)C21` (configuration not stated), the LC retention time came to 12.6 min.
`COc1ccc(C(=O)c2c(C)n(CCN3CCOCC3)c3ccccc23)cc1`: the LC retention time stood at 9.55 min.
`Cc1ccc(S(=O)(=O)NC(=O)NC2C3CCC(C)(C2O)C3(C)C)cc1` (configuration not stated): the LC retention time was found to be 9.79 min.
Then `O=C(O)Cc1cccc2ccccc12`, with 7.76 min; and `CNC(=O)Oc1cccc2c1OC(C)(C)C2O` (configuration not stated), with 5.09 min; and `CC#CC1(O)CCC2C3CCC4=CC(=O)CCC4=C3C(c3ccc(N(C)C)cc3)CC21C` (configuration not stated), with 11.1 min.
As for `O=[N+]([O-])c1cncn1CCN1CCOCC1`, the LC retention time came out at 4.09 min.
`CCN(CC)C(=O)c1cccc(C)c1`: the LC retention time turned out to be 8.2 min.
Consider `CCCCCn1nc(C(=O)NC(C)(C)c2ccccc2)c2ccccc21`, for which the LC retention time came out at 12.5 min.
The value for `COc1ccc(CC(C)NCC(O)c2ccc(O)c(NC=O)c2)cc1` (configuration not stated) was 4.79 min.
The value for `CCOC(=O)c1ccccc1C(=O)OCC` was 8.5 min.
With `COc1ccc2c3c1OC1C(OC4OC(C(=O)O)C(O)C(O)C4O)C=CC4C(C2)NCCC341` (configuration not stated), the LC retention time worked out at 2.48 min.
`COC(=O)C(C)N(C(=O)Cc1ccccc1)c1c(C)cccc1C` (configuration not stated): the LC retention time came to 10.9 min.
Then `CN1CCc2cccc3c2C1Cc1ccc(O)c(O)c1-3` (configuration not stated), with 4.28 min; and `CCCCCn1nc(C(=O)NC(C(N)=O)C(C)(C)C)c2ccccc21` (configuration not stated), with 11.2 min; and `Cc1cc(=O)n(-c2ccccc2)n1C`, with 4.63 min.
With `CCC1OC(=O)C(C)C(=O)C(C)C(OC2OC(C)CC(N(C)C)C2O)C(C)(OC)CC(C)C(=O)C(C)C2N(CCCCn3cnc(-c4cccnc4)c3)C(=O)OC12C` (configuration not stated), the LC retention time was 7.25 min.
The value for `CC(=O)N=c1sc(S(N)(=O)=O)nn1C` was 4.28 min; that for `CN1C2CCC1C(C(=O)O)C(OC(=O)c1ccccc1)C2` (configuration not stated) was 4.68 min; that for `N=c1nc(N2CCCCC2)cc(N)n1O` was 4.88 min.
On to `CN(C)CCOCC(=O)NC12CC3CC(CC(C3)C1)C2`, for which the LC retention time is 6.64 min.
For the compound `CON=C(C(=O)NC1C(=O)N2C(C(=O)O)=C(CSC(=O)c3ccco3)CSC12)c1csc(N)n1` (configuration not stated), the LC retention time amounted to 5.44 min.
The value for `CCOP(=S)(OCC)SCCS(=O)CC` (configuration not stated) was 7.86 min.
With `CCOc1ccccc1OC(c1ccccc1)C1CNCCO1` (configuration not stated), the LC retention time turned out to be 7.28 min.
`CCC1C2CC3C4N(C)c5ccccc5C45CC(C2C5O)N3C1O` (configuration not stated): the LC retention time was 5.19 min.
The value for `CC1(C)SC2C(NC(=O)C(N)c3ccccc3)C(=O)N2C1C(=O)O` (configuration not stated) was 4.21 min; that for `Cn1cc[nH]c1=S` was 2.61 min.
Then `CN(C)C(=O)C(c1ccccc1)c1ccccc1`, with 8.57 min; and `O=c1cn[nH][nH]1`, with 5.99 min.
The value for `CCNC(C)Cc1ccc2c(c1)OCO2` (configuration not stated) was 4.39 min; that for `CCCCC(CC)COC(=O)c1ccccc1C(=O)OCC(CC)CCCC` (configuration not stated) was 15 min.
With `CCCCNC(=O)NS(=O)(=O)c1ccc(N)cc1`, the LC retention time was determined as 5.36 min.
The value for `Nc1nc(N)nc(N)n1` was 1.45 min; that for `CC(Cc1ccccc1)NCCC(c1ccccc1)c1ccccc1` (configuration not stated) was 8.89 min; that for `Nc1ccc2c(c1)C(c1ccccc1)=NCC(=O)N2` was 4.78 min.
The value for `COP(=S)(NC(C)C)Oc1ccccc1C(=O)OC(C)C` (configuration not stated) was 11.7 min; that for `CC1=C(C(=O)Nc2ccccc2)SCCO1` was 7.46 min; that for `O=c1[nH]c2c(c(=O)n1C1CCCCC1)CCC2` was 8.27 min.
Then `CCN(CC)CC(C)(C)COC(=O)c1ccc(N)cc1`, with 4.24 min.
In the case of `CCCc1nn(C)c2c(=S)nc(-c3cc(S(=O)(=O)N4CCN(CC)CC4)ccc3OCC)[nH]c12`, the LC retention time was 10.6 min.
Then `COc1ccc(Oc2ccc(NC(=O)N(C)C)cc2)cc1`, with 8.43 min.
As to `CCNc1nc(NC(C)(C)C)nc(OC)n1`, the LC retention time was found to be 9.16 min.
The value for `CSc1nc(N=[N+]=[N-])nc(NC(C)C)n1` was 9.71 min.
The value for `NC(=O)C1CCNCC1` was 1.26 min; that for `Cc1ccc(-c2nc3ccc(C)cn3c2CC(=O)N(C)C)cc1` was 5.8 min.
The value for `CCCC(C(=O)c1ccc2ccccc2c1)N1CCCC1` (configuration not stated) was 7.33 min.
Turning to `CCSCCSP(=S)(OC)OC`, the LC retention time amounted to 10.2 min.
The value for `CCCCCn1cc(C(=O)C23CC4CC(CC(C4)C2)C3)c2ccccc21` was 13.7 min.

The record behind these values is the RepoRT retention time repository (doi:10.1016/j.jhazmat.2019.121712).
